How the values were obtained:
blackgrass = test: Test B postemergence herbicide test; type: in vivo, Alopecurus myosuroides; settings: scale 0 (no effect) to 100 (complete control); for Plant response rating, Blackgrass: Postemergence, 500 g ai/ha, visual rating after 13 to 15 days; for Blackgrass plant response rating: postemergence, 125 g ai/ha, visual rating
Outline: (§1)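 Postemergence plants were sprayed with formulated test chemicals at 2 to 18 cm height (1- to 4-leaf stage); paddy species were grown to the 2-leaf stage. After 13 to 15 days in a greenhouse, injury was rated visually against untreated controls on a 0–100 scale (0 = no effect, 100 = complete control).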

barnyardgrass [1] = test: Test B pre-/postemergence herbicide test; type: in vivo, Echinochloa crus-galli
Outline: (§2)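 Seeds were planted and treated preemergence with compounds formulated in a non-phytotoxic solvent mixture containing surfactant, while plants at the 1- to 4-leaf stage (2 to 18 cm) received postemergence sprays. Flooded paddy plants were grown to the 2-leaf stage. After 13 to 15 days in a greenhouse, injury was visually rated 0–100 against untreated controls.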

ducksalad = test: Test B flooded paddy test; type: in vivo, Heteranthera limosa; settings: 1000 g ai/ha, visual rating, scale 0 to 100 (0 no effect, 100 complete control), 13 to 15 days
Outline: as §1

wild oat = test: Test B postemergence herbicide test; type: in vivo, Avena fatua; settings: scale 0 (no effect) to 100 (complete control); for Plant response rating, Oat, Wild: Postemergence, 500 g ai/ha, visual rating after 13 to 15 days; for Oat, Wild plant response rating: postemergence, 125 g ai/ha, visual rating
Outline: (§3)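 Scale 0–100: zero equals no visible effect, 100 complete control, judged by eye relative to controls. Timing: 13 to 15 days in greenhouse post-treatment. Growth stage at spraying: two leaves (paddy) or one to four leaves, 2–18 cm (postemergence).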

Surinam grass = test: Test B pre-/postemergence herbicide test; type: in vivo, Urochloa decumbens; settings: for Surinam Grass plant response rating: postemergence, visual rating
Outline: (§4)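 Pre: seeds sown, then sprayed. Post: 1–4-leaf plants (2–18 cm) sprayed at the same time. Paddy: flooded, treated at 2-leaf stage. Formulation: non-phytotoxic solvent with surfactant. Greenhouse 13–15 days; visual 0–100 score relative to controls.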

corn = test: Test B pre-/postemergence herbicide test; type: in vivo, Zea mays
Outline: as §4

pigweed = test: Test B pre-/postemergence herbicide test; type: in vivo, Amaranthus retroflexus; settings: for Pigweed plant response rating: postemergence, visual rating
Outline: as §4

large crabgrass = test: Test B pre-/postemergence herbicide test; type: in vivo, Digitaria sanguinalis
Outline: as §4

wheat = test: Test B postemergence herbicide test; type: in vivo, Triticum aestivum; design: key to Wheat plant response rating: 0 = no effect, 100 = complete control; settings: scale 0 (no effect) to 100 (complete control); for Plant response rating, Wheat: Postemergence, 500 g ai/ha, visual rating after 13 to 15 days; for Wheat plant response rating: postemergence, 125 g ai/ha, visual rating
Outline: as §3

morningglory = test: Test B pre-/postemergence herbicide test; type: in vivo, Ipomoea coccinea; settings: for Morningglory plant response rating: postemergence, visual rating
Outline: as §2

[2] = system: small flower umbrella sedge; test: Test B flooded paddy test; type: in vivo, Cyperus difformis; settings: 1000 g ai/ha, visual rating, scale 0 to 100 (0 no effect, 100 complete control), 13 to 15 days
Outline: as §1

barnyardgrass [3] = test: Test B flooded paddy test; type: in vivo, Echinochloa crus-galli; settings: 1000 g ai/ha, visual rating, scale 0 to 100 (0 no effect, 100 complete control), 13 to 15 days
Outline: as §1

rice = test: Test B flooded paddy test; type: in vivo, Oryza sativa; settings: 1000 g ai/ha, visual rating, scale 0 to 100 (0 no effect, 100 complete control), 13 to 15 days
Outline: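 Plants grow to 1- to 4-leaf stage (2–18 cm) for postemergence spraying, or to 2-leaf stage for the paddy test. Formulated compound is applied. Greenhouse holding lasts 13–15 days. Response is scored visually relative to controls, 0 no effect to 100 complete control; a dash means no result.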

cocklebur = test: Test B pre-/postemergence herbicide test; type: in vivo, Xanthium strumarium
Outline: as §2

lambsquarters = test: Test B pre-/postemergence herbicide test; type: in vivo, Chenopodium album; settings: for Lambsquarters plant response rating: postemergence, visual rating
Outline: as §4

giant foxtail = test: Test B pre-/postemergence herbicide test; type: in vivo, Setaria faberi
Outline: as §4

[4] = Postemergence, 500 g ai/ha, visual rating after 13 to 15 days, scale 0 (no effect) to 100 (complete control)
[5] = Preemergence, 500 g ai/ha, scale 0 to 100
[6] = postemergence, 125 g ai/ha, visual rating, scale 0 (no effect) to 100 (complete control)
[7] = preemergence, 125 g ai/ha, 0 to 100 scale, 0 is no effect, 100 is complete control
[8] = 125 g ai/ha, scale 0 (no effect) to 100 (complete control)

CCn1nc(C(C)(C)C)cc1C(=O)Nc1cccc2c1CCN(C1CC1)C2=O [Compound 64]
100: Plant response rating, Pigweed (pigweed; [7]) | Crabgrass, Large plant response rating (large crabgrass; [5]) | Foxtail, Giant plant response rating (giant foxtail; [5])
30: Barnyardgrass plant response rating (barnyardgrass [3]) | Cocklebur plant response rating (cocklebur; [6])
0: Blackgrass plant response rating (blackgrass) | Corn plant response rating (corn; [5]) | Plant response rating, Corn (corn; [7]) | Wheat plant response rating (wheat) | Morningglory plant response rating (morningglory; [8]) | Plant response rating, Morningglory (morningglory; [7]) | Cocklebur plant response rating (cocklebur; [5]) | Plant response rating, Cocklebur (cocklebur; [7])
90: Barnyardgrass plant response rating (barnyardgrass [1]; [5]) | Ducksalad plant response rating (ducksalad) | Sedge, Umbrella plant response rating [2]
60: Plant response rating, Lambsquarters (lambsquarters; [7])
50: Plant response rating, Barnyardgrass (barnyardgrass [1]; [7]) | Plant response rating, Pigweed (pigweed; [4]) | Rice plant response rating (rice) | Plant response rating, Cocklebur (cocklebur; [4])
20: Plant response rating, Oat, Wild (wild oat) | Oat, Wild plant response rating (wild oat) | Plant response rating, Corn (corn; [4]) | Pigweed plant response rating (pigweed; [8]) | Plant response rating, Crabgrass, Large (large crabgrass; [7]) | Plant response rating, Morningglory (morningglory; [4])
10: Plant response rating, Blackgrass (blackgrass) | Plant response rating, Barnyardgrass (barnyardgrass [1]; [4]) | Barnyardgrass plant response rating (barnyardgrass [1]; [6]) | Plant response rating, Surinam Grass (Surinam grass; [4]) | Surinam Grass plant response rating (Surinam grass; [8]) | Plant response rating, Surinam Grass (Surinam grass; [7]) | Corn plant response rating (corn; [6]) | Plant response rating, Crabgrass, Large (large crabgrass; [4]) | Crabgrass, Large plant response rating (large crabgrass; [6]) | Plant response rating, Wheat (wheat) | Plant response rating, Foxtail, Giant (giant foxtail; [4]) | Foxtail, Giant plant response rating (giant foxtail; [6]) | Plant response rating, Foxtail, Giant (giant foxtail; [7])
70: Plant response rating, Lambsquarters (lambsquarters; [4]) | Lambsquarters plant response rating (lambsquarters; [8])

CCCN1CCc2c(NC(=O)c3cc(C(C)(C)C)nn3CC)cccc2C1=O [Compound 65]
90: Barnyardgrass plant response rating (barnyardgrass [1]; [5]) | Ducksalad plant response rating (ducksalad) | Plant response rating, Pigweed (pigweed; [7]) | Sedge, Umbrella plant response rating [2]
40: Pigweed plant response rating (pigweed; [8])
80: Crabgrass, Large plant response rating (large crabgrass; [5]) | Barnyardgrass plant response rating (barnyardgrass [3]) | Plant response rating, Cocklebur (cocklebur; [4]) | Plant response rating, Lambsquarters (lambsquarters; [7]) | Foxtail, Giant plant response rating (giant foxtail; [5])
10: Plant response rating, Blackgrass (blackgrass) | Blackgrass plant response rating (blackgrass) | Plant response rating, Barnyardgrass (barnyardgrass [1]; [4]) | Barnyardgrass plant response rating (barnyardgrass [1]; [6]) | Oat, Wild plant response rating (wild oat) | Plant response rating, Surinam Grass (Surinam grass; [7]) | Corn plant response rating (corn; [5]) | Crabgrass, Large plant response rating (large crabgrass; [6]) | Plant response rating, Wheat (wheat) | Morningglory plant response rating (morningglory; [8]) | Foxtail, Giant plant response rating (giant foxtail; [6])
70: Plant response rating, Lambsquarters (lambsquarters; [4]) | Lambsquarters plant response rating (lambsquarters; [8])
60: Plant response rating, Pigweed (pigweed; [4]) | Cocklebur plant response rating (cocklebur; [6])
20: Plant response rating, Oat, Wild (wild oat) | Plant response rating, Surinam Grass (Surinam grass; [4]) | Surinam Grass plant response rating (Surinam grass; [8]) | Plant response rating, Corn (corn; [4]) | Corn plant response rating (corn; [6]) | Plant response rating, Crabgrass, Large (large crabgrass; [4]) | Plant response rating, Crabgrass, Large (large crabgrass; [7]) | Plant response rating, Morningglory (morningglory; [4]) | Plant response rating, Foxtail, Giant (giant foxtail; [4]) | Plant response rating, Foxtail, Giant (giant foxtail; [7])
0: Plant response rating, Corn (corn; [7]) | Wheat plant response rating (wheat) | Plant response rating, Morningglory (morningglory; [7]) | Cocklebur plant response rating (cocklebur; [5]) | Plant response rating, Cocklebur (cocklebur; [7])
50: Plant response rating, Barnyardgrass (barnyardgrass [1]; [7]) | Rice plant response rating (rice)

CCCCOC(=O)c1cccc(NC(=O)c2cc(C(C)(C)C)nn2CC)c1 [Compound 86]
20: Plant response rating, Blackgrass (blackgrass) | Ducksalad plant response rating (ducksalad) | Corn plant response rating (corn; [6]) | Cocklebur plant response rating (cocklebur; [6])
60: Plant response rating, Oat, Wild (wild oat) | Crabgrass, Large plant response rating (large crabgrass; [6]) | Morningglory plant response rating (morningglory; [8]) | Plant response rating, Foxtail, Giant (giant foxtail; [4])
100: Plant response rating, Surinam Grass (Surinam grass; [4]) | Plant response rating, Pigweed (pigweed; [4]) | Pigweed plant response rating (pigweed; [8]) | Plant response rating, Morningglory (morningglory; [4]) | Plant response rating, Cocklebur (cocklebur; [4])
80: Plant response rating, Barnyardgrass (barnyardgrass [1]; [4]) | Lambsquarters plant response rating (lambsquarters; [8])
0: Barnyardgrass plant response rating (barnyardgrass [1]; [5]) | Plant response rating, Barnyardgrass (barnyardgrass [1]; [7]) | Plant response rating, Surinam Grass (Surinam grass; [7]) | Corn plant response rating (corn; [5]) | Plant response rating, Corn (corn; [7]) | Plant response rating, Pigweed (pigweed; [7]) | Crabgrass, Large plant response rating (large crabgrass; [5]) | Plant response rating, Crabgrass, Large (large crabgrass; [7]) | Plant response rating, Morningglory (morningglory; [7]) | Cocklebur plant response rating (cocklebur; [5]) | Plant response rating, Cocklebur (cocklebur; [7]) | Plant response rating, Lambsquarters (lambsquarters; [7]) | Foxtail, Giant plant response rating (giant foxtail; [5]) | Plant response rating, Foxtail, Giant (giant foxtail; [7])
30: Oat, Wild plant response rating (wild oat) | Plant response rating, Corn (corn; [4]) | Wheat plant response rating (wheat) | Barnyardgrass plant response rating (barnyardgrass [3])
50: Barnyardgrass plant response rating (barnyardgrass [1]; [6]) | Rice plant response rating (rice)
70: Surinam Grass plant response rating (Surinam grass; [8]) | Sedge, Umbrella plant response rating [2]
10: Blackgrass plant response rating (blackgrass)
40: Plant response rating, Wheat (wheat) | Foxtail, Giant plant response rating (giant foxtail; [6])
90: Plant response rating, Crabgrass, Large (large crabgrass; [4]) | Plant response rating, Lambsquarters (lambsquarters; [4])

Reference: patent US20060069132A1, “Azolecarboxamide herbicides” (priority 2004, published 2006)
